Assay results published in patent US20050096347A1, “Beta3-Adrenoreceptor agonists, agonist compositions and methods of using” (Molecular Design International, Inc., priority 1997, published 2005).
Structures can show the parent of a compound that is named as a salt. Where two headings read alike, the source gives them in different places. Values belong to the compound of their own block, whether it stands above or below them.

Experiments:
rat-β3-AR [1] = biological target: T1, rat-β3-AR (Rattus norvegicus, UniProt P26255); assay: Binding in CHO cells expressing rat β3-AR; conditions: mean ± SEM (n in parentheses), read-out: pKi (−log Ki) for binding, rat-β3-AR (converted)
T1 construct: expressed in transfected cells; host or cells: CHO cells
T1 sequence (P26255 whole entry): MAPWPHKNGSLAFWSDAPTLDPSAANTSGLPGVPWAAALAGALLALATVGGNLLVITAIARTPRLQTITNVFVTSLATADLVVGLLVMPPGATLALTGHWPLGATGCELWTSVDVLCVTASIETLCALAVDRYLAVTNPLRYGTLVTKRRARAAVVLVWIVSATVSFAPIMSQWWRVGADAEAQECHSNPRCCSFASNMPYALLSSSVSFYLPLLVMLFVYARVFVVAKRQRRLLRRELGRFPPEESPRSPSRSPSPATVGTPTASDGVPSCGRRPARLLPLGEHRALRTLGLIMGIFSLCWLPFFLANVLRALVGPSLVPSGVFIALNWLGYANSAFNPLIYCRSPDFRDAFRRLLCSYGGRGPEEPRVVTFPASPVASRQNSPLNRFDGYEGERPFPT

rat-β3-AR [2] = biological target: T1, rat-β3-AR; assay: cAMP accumulation in CHO cells expressing rat β3-AR; assay type: cell-based; conditions: for EC50: read-out: pKact (−log EC50) for cAMP accumulation, rat-β3-AR (converted); for Emax: read-out: Emax, maximal cAMP accumulation
Procedure: (§1) cAMP Radioimmunoassay (CAMP-RIA Assay). […] The precipitated protein was dissolved in 0.1N NaOH.

[3] = biological target: T2, Thromboxane A2/Prostaglandin H2 (TP) receptor (Homo sapiens, UniProt P21731); assay: Radioligand competition binding, TP receptor sites in human platelets ([3H]SQ 29,548); conditions: for pKi ± SEM, Human TP receptors: [3H]SQ 29,548 as radioligand, platelets, N = 4-9; for P.R. (potency ratio), Human TP receptors: relative to cmpd. 1 (TMQ), PR = antilog [pKi(drug) − pKi(TMQ)]
T2 construct: endogenous in cells; host or cells: human platelets (from platelet rich plasma)
T2 sequence (P21731 1-343): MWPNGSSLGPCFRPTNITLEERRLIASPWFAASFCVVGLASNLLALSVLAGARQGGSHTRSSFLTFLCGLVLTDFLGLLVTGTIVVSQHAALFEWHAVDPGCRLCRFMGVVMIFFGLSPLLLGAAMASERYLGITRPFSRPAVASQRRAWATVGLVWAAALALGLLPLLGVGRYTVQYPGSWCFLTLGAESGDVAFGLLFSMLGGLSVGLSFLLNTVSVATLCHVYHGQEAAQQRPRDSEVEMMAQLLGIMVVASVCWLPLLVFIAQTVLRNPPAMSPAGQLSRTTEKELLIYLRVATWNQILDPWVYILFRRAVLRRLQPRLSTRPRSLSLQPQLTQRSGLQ
Procedure: For binding experiments, human platelet rich plasma (PRP) was centrifuged and re-suspended in 50 mM Tris-saline buffer, pH 7.4. […] Filters were placed in plastic scintillation vials containing 10 mL of an emulsion-type scintillation mixture and radioactivity measured by liquid scintillation spectrometry.

human β2 Adrenoreceptor = biological target: T3, human β2 Adrenoreceptor (Homo sapiens, UniProt P07550); assay: Radioligand competition binding, human β2 adrenoreceptor expressed in CHO cells ([125I]ICYP); conditions: for pKi ± SEM, Human β2 Adrenoreceptor CHO: [125I]ICYP as radioligand, N = 4-9; for P.R. (potency ratio), Human β2 Adrenoreceptor CHO: relative to cmpd. 1 (TMQ), PR = antilog [pKi(drug) − pKi(TMQ)]
T3 construct: expressed in transfected cells
T3 sequence (P07550 whole entry): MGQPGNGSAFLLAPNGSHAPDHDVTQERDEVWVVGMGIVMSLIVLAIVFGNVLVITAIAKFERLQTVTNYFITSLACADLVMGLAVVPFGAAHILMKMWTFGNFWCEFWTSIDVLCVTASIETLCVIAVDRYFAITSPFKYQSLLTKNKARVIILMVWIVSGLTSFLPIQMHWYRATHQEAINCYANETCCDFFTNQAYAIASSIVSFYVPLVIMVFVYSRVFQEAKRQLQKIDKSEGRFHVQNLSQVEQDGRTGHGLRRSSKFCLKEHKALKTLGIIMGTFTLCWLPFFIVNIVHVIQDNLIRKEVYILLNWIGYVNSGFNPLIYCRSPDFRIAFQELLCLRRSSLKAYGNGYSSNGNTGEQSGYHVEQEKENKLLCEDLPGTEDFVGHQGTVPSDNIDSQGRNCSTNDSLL

Human β3 Adrenoreceptors = biological target: T4, Human β3 Adrenoreceptors (Homo sapiens, UniProt P13945); assay: hβ3 cAMP functional activity in CHO cells expressing human β3 adrenoreceptors (Table 8); assay type: cell-based; conditions: for EC50: read-out: hβ3 cAMP EC50(nM) +/−SEM
T4 construct: expressed in transfected cells
T4 sequence (P13945 whole entry): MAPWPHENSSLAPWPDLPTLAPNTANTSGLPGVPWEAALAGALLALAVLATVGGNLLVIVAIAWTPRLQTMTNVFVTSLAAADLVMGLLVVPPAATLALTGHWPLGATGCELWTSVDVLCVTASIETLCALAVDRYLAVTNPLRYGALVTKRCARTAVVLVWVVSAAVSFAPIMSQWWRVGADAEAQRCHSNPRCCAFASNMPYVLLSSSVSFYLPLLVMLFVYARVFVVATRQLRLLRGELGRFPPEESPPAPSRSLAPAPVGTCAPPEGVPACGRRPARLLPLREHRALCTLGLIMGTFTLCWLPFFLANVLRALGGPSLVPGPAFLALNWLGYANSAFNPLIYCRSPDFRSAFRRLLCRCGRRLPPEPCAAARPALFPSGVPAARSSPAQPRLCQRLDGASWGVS

human β1 Adrenoreceptor = human β1 Adrenoreceptor (Homo sapiens, UniProt P08588); assay: Radioligand competition binding, human β1 adrenoreceptor expressed in CHO cells ([125I]ICYP)
Sequence of human β1 Adrenoreceptor (P08588 whole entry): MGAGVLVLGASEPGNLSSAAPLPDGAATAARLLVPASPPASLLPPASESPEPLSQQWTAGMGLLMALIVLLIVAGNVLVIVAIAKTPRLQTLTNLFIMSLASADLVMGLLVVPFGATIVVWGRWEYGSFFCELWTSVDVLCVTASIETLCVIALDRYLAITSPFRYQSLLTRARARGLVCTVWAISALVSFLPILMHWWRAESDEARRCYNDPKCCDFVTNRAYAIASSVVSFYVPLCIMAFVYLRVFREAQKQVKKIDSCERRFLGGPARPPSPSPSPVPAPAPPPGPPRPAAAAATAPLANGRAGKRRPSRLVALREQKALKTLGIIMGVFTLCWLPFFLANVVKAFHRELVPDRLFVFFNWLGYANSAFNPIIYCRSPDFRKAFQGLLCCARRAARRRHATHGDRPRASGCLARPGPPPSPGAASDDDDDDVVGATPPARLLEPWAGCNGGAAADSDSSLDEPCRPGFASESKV
Procedure: Competitive and comparative binding experiments on β1 Adrenoreceptors, β2 Adrenoreceptors and β3-Adrenoreceptors expressed in CHO cells were performed as described previously. […] CHO cells grown to a confluence in 150-mL flasks were detached into Ham's F-12 medium after treatment with 0.05% trypsin-0.53 mM EDTA solution. The cells were then pelleted and washed three times with Tris-EDTA buffer (50 mM Tris-HCl, 150 mM NaCl, 20 mM EDTA, pH 7.4) and resuspended in the same buffer.
Competition binding experiments were performed in duplicates using these whole cells. […] The final volume in each tube was 0.25 mL. Nonspecific binding (5-30%) was determined in the presence of 1 μM (±)-propranolol. Incubations were carried out for 60 min at 37° C. Binding reactions were terminated by rapid filtration through Whatman GF/B glass fiber filters on a Brandel model 12-R tissue harvester. Filters were washed twice with ice cold Tris-EDTA buffer to remove free ICYP. The filters were dried under tissue harvester vacuum and radioactivity was measured by gamma scintillation spectrometry (Beckman model 8000 gamma counter, Palo Alto, Calif.). Specific binding to β Adrenoreceptor sites in these cells varied from 94 to 100%
Inhibitory concentration-50 (IC50) value of each competing drug was determined graphically from individual plots of percent radioligand bound versus log drug concentration on O-adrenoceptors and human platelets. […] Dissociation constants (Ki) for each competing drug were calculated using the equation: [formula] and the data expressed as pKi (i.e., −log Ki) values.

Human β3-AR = Human β3-AR (Homo sapiens, UniProt P13945); assay: cAMP radioimmunoassay (cAMP-RIA), CHO cells expressing human β3-AR; assay type: cell-based; parameters: expressed in transfected cells; conditions: for I.A., Human β3-AR, cAMP-RIA assay: percentage of maximal response of R-(−)-isoproterenol (100%)
Sequence of Human β3-AR (P13945 whole entry): as the sequence (P13945 whole entry) above
Procedure: as §1

β2-AR = β2-AR (Rattus norvegicus, UniProt P10608); assay: Relaxation of carbachol-precontracted isolated rat tracheal strips; conditions: for I.A. (intrinsic activity), Trachea: maximal response relative to maximal response of (−)-isoproterenol
Sequence of β2-AR (P10608 whole entry): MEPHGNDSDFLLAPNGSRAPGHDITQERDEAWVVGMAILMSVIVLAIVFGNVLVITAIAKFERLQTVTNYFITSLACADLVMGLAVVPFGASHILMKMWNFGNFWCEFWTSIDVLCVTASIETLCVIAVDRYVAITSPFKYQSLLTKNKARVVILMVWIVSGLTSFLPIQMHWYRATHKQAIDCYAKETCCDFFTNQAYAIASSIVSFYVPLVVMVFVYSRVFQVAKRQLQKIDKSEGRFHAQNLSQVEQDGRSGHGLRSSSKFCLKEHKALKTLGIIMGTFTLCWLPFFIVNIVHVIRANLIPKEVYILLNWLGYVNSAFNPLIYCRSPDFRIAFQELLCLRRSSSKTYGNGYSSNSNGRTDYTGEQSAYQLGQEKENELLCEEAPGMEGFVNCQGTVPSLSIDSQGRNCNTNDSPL
Procedure: (§2) Male Sprague Dawley rats (Harlan Industries, Cumberland, Ind.) housed under a 12 hour light/dark cycle and fed Purina Rodent Laboratory Chow (Ralston Purina., St. Louis, Mo.) and water ad libitum, were used for the studies. […] All tissues were suspended and equilibrated in modified Kreb's buffer in water-jacketed baths at 37° C. Resting tensions of 1 g for right atria, trachea and aorta, and of 200 mg for esophageal smooth muscle were used. All tissue responses were measured on a Grass Polygraph Model 7C with a Grass FT-03C isometric force-displacement transducer.
(§3) Carbachol-precontracted tissues were included as controls through the duration of relaxation studies.

Atypical-β/β3-AR = Atypical-β/β3-AR (Rattus norvegicus, UniProt P26255); assay: Relaxation of carbachol-precontracted rat esophageal smooth muscle; conditions: for I.A. (intrinsic activity), Esophageal Smooth Muscle (Atypical-β/β3-AR): maximal response relative to maximal response of (−)-isoproterenol
Sequence of Atypical-β/β3-AR (P26255 whole entry): as the sequence (P26255 whole entry) above
Procedure: as §2, §3

Human β1-AR = Human β1-AR (Homo sapiens, UniProt P08588); assay: cAMP radioimmunoassay (cAMP-RIA), CHO cells expressing human β1-AR; assay type: cell-based; parameters: expressed in transfected cells; conditions: percentage of maximal response of R-(−)-isoproterenol (100%)
Sequence of Human β1-AR (P08588 whole entry): as the sequence (P08588 whole entry) above
Procedure: as §1

β1-AR = β1-AR (Rattus norvegicus, UniProt P18090); assay: Chronotropic responses of spontaneously beating isolated rat right atria
Sequence of β1-AR (P18090 whole entry): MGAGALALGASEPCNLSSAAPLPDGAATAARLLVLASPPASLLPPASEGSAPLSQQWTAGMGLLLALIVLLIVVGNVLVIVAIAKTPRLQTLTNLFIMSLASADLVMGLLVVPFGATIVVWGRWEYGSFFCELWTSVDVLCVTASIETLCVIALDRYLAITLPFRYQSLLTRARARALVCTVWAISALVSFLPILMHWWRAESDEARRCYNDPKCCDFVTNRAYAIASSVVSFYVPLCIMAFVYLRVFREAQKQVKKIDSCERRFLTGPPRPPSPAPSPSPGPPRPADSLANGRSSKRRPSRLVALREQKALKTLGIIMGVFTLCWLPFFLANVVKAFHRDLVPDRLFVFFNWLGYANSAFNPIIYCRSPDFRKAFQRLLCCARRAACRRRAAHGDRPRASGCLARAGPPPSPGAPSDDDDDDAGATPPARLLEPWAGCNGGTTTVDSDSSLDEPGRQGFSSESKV
Procedure: as §2
The tissue was again washed 6-7 times with 10 ml of buffer, followed by repeated washes every 10-15 min.

[4] = CHO cells, mean ± SEM (n in parentheses)
[5] = relative to that of (−)-isoproterenol, CHO cells expressing rat-β3-AR
[6] = CHO cells (Table 8), read-out: hβ2 Binding ki

- Ki (rat-β3-AR [1]): 1580 nM
- EC50 (rat-β3-AR [2]; [4]): 1.82 nM
- Emax (rat-β3-AR [2]; [5]): 97.7 ± 5.85%
SMILES: Oc1cc2c(cc1O)C(Cc1cc(I)cc(I)c1)NCC2 (stereo not shown) [DemethoxyDITMQ]

- pKi ± SEM, Human TP receptors [3]: 7.33
- Ki (rat-β3-AR [1]): 457 nM
- EC50 (rat-β3-AR [2]; [4]): 0.398 nM
- Emax (rat-β3-AR [2]; [5]): 96.9 ± 10.1%
SMILES: COc1c(I)cc(CC2NCCc3cc(O)c(O)cc32)cc1I (stereo not shown) [Compound 2, reference compound]

- Ki (human β2 Adrenoreceptor; [6]): 47 nM
- hβ3 cAMP % Iso +/−SEM (Human β3 Adrenoreceptors): 89 +/− 5 % Iso
- EC50 (Human β3 Adrenoreceptors): 33.5 nM
- Ki (human β1 Adrenoreceptor): 278 nM
SMILES: COc1c(I)cc(CC2NCCc3cc(O)ccc32)cc1I (stereo not shown) [drawing 83]

- pKi ± SEM, Human β2 Adrenoreceptor CHO (human β2 Adrenoreceptor): 8.81
- P.R. (potency ratio), Human β2 Adrenoreceptor CHO (human β2 Adrenoreceptor): 28
- fold reduction in TP receptor binding affinity compared to 2 [3]: 3 fold
- pKi ± SEM, Human TP receptors [3]: 6.73
- P.R. (potency ratio), Human TP receptors [3]: 0.87
- Ki (rat-β3-AR [1]): 724 nM
SMILES: Cl.Cl.Nc1c(I)cc(CC2NCCc3cc(O)c(O)cc32)cc1I (stereo not shown) [Compound 21c, 1-(4-Amino-3,5-diiodobenzyl)-6,7-dihydroxy-1,2,3,4-tetrahydroisoquinoline Dihydrochloride]

- Ki (rat-β3-AR [1]): 132000 nM
- pKact (−log EC50) for cAMP accumulation, rat-β3-AR (rat-β3-AR [2]; [4]): no activity upto 3 × 10^−5 M
SMILES: COc1cc2c(cc1OC)C(Cc1cc(OC)c(OC)c(OC)c1)NCC2 (stereo not shown) [6,7-Dimethoxy TMQ, reference compound]

- EC50 (Human β3 Adrenoreceptors): < 1 nM
SMILES: COc1cc(CC2NCCc3cc(O)c(O)cc32)cc(OC)c1OC (stereo not shown)

- Ki (rat-β3-AR [1]): 14500 nM
SMILES: COc1cc2c(cc1OC)C(Cc1cc(I)c(NC(C)=O)c(I)c1)NCC2 (stereo not shown) [6,7-Dimethoxy-acetamidoDITMQ, 1-(4-Acetamido-3,5-diiodobenzyl)-6,7-dimethoxy-1,2,3,4-tetrahydroisoquinoline Hydrochloride]

- hβ3 cAMP % Iso +/−SEM (Human β3 Adrenoreceptors): 108 +/− 2 % Iso
- EC50 (Human β3 Adrenoreceptors): < 4 nM
- Ki (human β1 Adrenoreceptor): 63.4 nM
SMILES: Nc1c(I)cc(CC2NCCc3cc(O)c(O)cc32)cc1I (stereo not shown)

- Ki (human β2 Adrenoreceptor; [6]): 3.1 nM
- EC50 (Human β3 Adrenoreceptors): < 4 nM
SMILES: COc1c(I)cc(CC2NCCc3cc(O)c(O)cc32)cc1I (stereo not shown) [drawing 80]

- I.A. ± SEM, Human β1-AR, cAMP-RIA assay (Human β1-AR): 109 ± 10%
- EC50 (Human β3-AR): 2.51 nM
SMILES: COc1cc(CC2NCCc3cc(O)c(O)cc32)cc(OC)c1OC (racemic) [Compound 1, trimetoquinol, reference compound]

- Ki (rat-β3-AR [1]): 51300 nM
- EC50 (rat-β3-AR [2]; [4]): 1200 nM
- Emax (rat-β3-AR [2]; [5]): 70.9 ± 4.41%
SMILES: COc1cc(CC2NCCc3cc4c(cc32)OCO4)cc(OC)c1OC (stereo not shown) [6,7-Methylenedioxy TMQ]

Further lines, the compound ahead of its results:

SMILES: Cl.Oc1cc2c(cc1O)C(Cc1cc(C(F)(F)F)cc(C(F)(F)F)c1)NCC2 (stereo not shown) [Compound 27, 1-(3,5-Bis-trifluoromethylbenzyl)-6,7-dihydroxy-1,2,3,4-tetrahydroisoquinoline Hydrochloride]
- pKi ± SEM, Human β2 Adrenoreceptor CHO (human β2 Adrenoreceptor): 5.36
- P.R. (potency ratio), Human β2 Adrenoreceptor CHO (human β2 Adrenoreceptor): 0.01
- pKi ± SEM, Human TP receptors [3]: 4.08 ± 0.02
- P.R. (potency ratio), Human TP receptors [3]: 0.002

SMILES: [N-]=[N+]=Nc1ccc(CC2NCCc3cc(O)c(O)cc32)cc1I (stereo not shown)
- Ki (human β2 Adrenoreceptor; [6]): 24 nM
- hβ3 cAMP % Iso +/−SEM (Human β3 Adrenoreceptors): 81 +/− 3 % Iso
- EC50 (Human β3 Adrenoreceptors): 46 nM
- Ki (human β1 Adrenoreceptor): 14.2 nM

SMILES: CC(=O)Nc1ccc(CC2NCCc3cc(O)c(O)cc32)cc1I.I (stereo not shown) [Compound 26a, 1-(4-Acetamido-3-iodobenzyl)-6,7-dihydroxy-1,2,3,4-tetrahydroisoquinoline Hydroiodide]
- pKi ± SEM, Human β2 Adrenoreceptor CHO (human β2 Adrenoreceptor): 8.11
- P.R. (potency ratio), Human β2 Adrenoreceptor CHO (human β2 Adrenoreceptor): 5.6
- fold decrease in TP receptor binding affinity on removal of one iodine (24 vs 21c, 26a vs 15) [3]: 5 fold
- pKi ± SEM, Human TP receptors [3]: 5.83
- P.R. (potency ratio), Human TP receptors [3]: 0.11

SMILES: CC(C)NC[C@H](O)c1ccc(O)c(O)c1 (single isomer, unassigned) [(−)Isoproterenol, isoproterenol, reference compound]
- Emax (rat-β3-AR [2]; CHO): 100%
- I.A., Human β3-AR, cAMP-RIA assay (Human β3-AR): 100%
- I.A. (intrinsic activity), Trachea (β2-AR): 1.00
- I.A. (intrinsic activity), Esophageal Smooth Muscle (Atypical-β/β3-AR) (Atypical-β/β3-AR): 1.00

SMILES: COc1c(I)cc(CC2NCCc3nc(NC(C)=O)sc32)cc1I.O=C(O)/C=C\C(=O)O (stereo not shown) [Compound 10]
- I.A. ± SEM, Human β1-AR, cAMP-RIA assay (Human β1-AR): <10%
- I.A., Human β3-AR, cAMP-RIA assay (Human β3-AR): <10%

SMILES: Br.CC(=O)Nc1c(I)cc(CC2NCCc3cc(O)c(O)cc32)cc1I (stereo not shown) [Compound 15, 1-(4-Acetamido-3,5-diiodobenzyl)-6,7-dihydroxy-1,2,3,4-tetrahydroisoquinoline Hydrobromide]
- pKi ± SEM, Human β2 Adrenoreceptor CHO (human β2 Adrenoreceptor): 8.06
- pKi ± SEM, Human TP receptors [3]: 6.45
- Ki (rat-β3-AR [1]): 52.5 nM
- EC50 (rat-β3-AR [2]; [4]): 0.457 nM
- Emax (rat-β3-AR [2]; [5]): 89.6 ± 6.93%
- EC50 (β2-AR): 0.603 nM
- I.A. (intrinsic activity), Trachea (β2-AR): 0.84 ± 0.02
- EC50 (Atypical-β/β3-AR): 2.09 nM
- I.A. (intrinsic activity), Esophageal Smooth Muscle (Atypical-β/β3-AR) (Atypical-β/β3-AR): 0.99 ± 0.03
- EC50 (β1-AR): 1.1 nM
- I.A. (intrinsic activity), Right Atria (β-AR) (β1-AR; maximal response relative to maximal response of (−)-isoproterenol): 0.93 ± 0.04

SMILES: Br.Oc1cc2c(cc1O)C(Cc1cc(I)c(O)c(I)c1)NCC2 (stereo not shown) [Compound 18, 6,7-Dihydroxy-1-(4-hydroxy-3,5-diiodobenzyl)-1,2,3,4-tetrahydroisoquinoline Hydrobromide]
- pKi ± SEM, Human β2 Adrenoreceptor CHO (human β2 Adrenoreceptor): 7.93
- pKi ± SEM, Human TP receptors [3]: 4.72

SMILES: Br.Oc1cc2c(cc1O)C(Cc1cc(I)c(I)c(I)c1)NCC2 (stereo not shown) [Compound 21b, 6,7-Dihydroxy-1-(3,4,5-triiodobenzyl)-1,2,3,4-tetrahydroisoquinoline Hydrobromide]
- pKi ± SEM, Human β2 Adrenoreceptor CHO (human β2 Adrenoreceptor): 8.82
- P.R. (potency ratio), Human β2 Adrenoreceptor CHO (human β2 Adrenoreceptor): 29
- pKi ± SEM, Human TP receptors [3]: 4.22
- P.R. (potency ratio), Human TP receptors [3]: 0.003

SMILES: I.O=C(Nc1ccc(CC2NCCc3cc(O)c(O)cc32)cc1I)c1ccccc1 (stereo not shown) [Compound 26b, 1-(4-Benzoylamino-3-iodobenzyl)-6,7-dihydroxy-1,2,3,4-tetrahydroisoquinoline Hydroiodide]
- pKi ± SEM, Human β2 Adrenoreceptor CHO (human β2 Adrenoreceptor): 8.70
- P.R. (potency ratio), Human β2 Adrenoreceptor CHO (human β2 Adrenoreceptor): 22
- pKi ± SEM, Human TP receptors [3]: 5.27 ± 0.13
- P.R. (potency ratio), Human TP receptors [3]: 0.03

SMILES: COc1cc(CC2NCCc3nc(N)sc32)cc(OC)c1OC (stereo not shown)
- Ki (human β2 Adrenoreceptor; [6]): > 3000 nM
- EC50 (Human β3 Adrenoreceptors): > 3160 nM
- Ki (human β1 Adrenoreceptor): > 3000 nM

SMILES: COc1c(I)cc(CC2NCCc3nc(N)sc32)cc1I (stereo not shown)
- Ki (human β2 Adrenoreceptor): 534 nM
- EC50 (Human β3 Adrenoreceptors): 506 nM
